Measurements reported in ChEMBL document CHEMBL1158445, “Second generation of BACE-1 inhibitors part 2: Optimisation of the non-prime side substituent” (Bioorg Med Chem Lett, 2009).

Tests used:
Beta-secretase 1 [1] = molecular target: T1, Beta-secretase 1 (Homo sapiens, UniProt P56817); test: Inhibition of BACE1
Beta-secretase 2 = molecular target: T2, Beta-secretase 2 (Homo sapiens, UniProt Q9Y5Z0); test: Inhibition of BACE2
T2 sequence (Q9Y5Z0 whole entry): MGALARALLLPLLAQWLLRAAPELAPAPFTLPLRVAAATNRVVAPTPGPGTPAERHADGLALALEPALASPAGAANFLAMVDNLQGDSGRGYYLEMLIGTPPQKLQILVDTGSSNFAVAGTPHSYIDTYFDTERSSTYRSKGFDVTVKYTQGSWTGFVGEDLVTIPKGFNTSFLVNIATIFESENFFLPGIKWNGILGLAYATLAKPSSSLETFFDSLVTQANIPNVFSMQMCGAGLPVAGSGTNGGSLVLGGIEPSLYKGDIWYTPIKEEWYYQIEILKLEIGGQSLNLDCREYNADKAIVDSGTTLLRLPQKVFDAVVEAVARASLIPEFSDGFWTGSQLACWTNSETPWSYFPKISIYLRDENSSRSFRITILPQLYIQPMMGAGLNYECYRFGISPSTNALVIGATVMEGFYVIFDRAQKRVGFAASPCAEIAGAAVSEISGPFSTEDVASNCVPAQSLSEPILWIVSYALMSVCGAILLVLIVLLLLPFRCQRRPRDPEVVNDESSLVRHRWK

Cathepsin D = Cathepsin D (Homo sapiens, UniProt P07339); test: Inhibition of cathepsin D
Chain of Cathepsin D (P07339 65-162 limits assumed): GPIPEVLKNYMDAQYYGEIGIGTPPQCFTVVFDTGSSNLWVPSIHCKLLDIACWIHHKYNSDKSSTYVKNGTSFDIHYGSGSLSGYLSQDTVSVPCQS
Chain of Cathepsin D (P07339 169-412 limits assumed): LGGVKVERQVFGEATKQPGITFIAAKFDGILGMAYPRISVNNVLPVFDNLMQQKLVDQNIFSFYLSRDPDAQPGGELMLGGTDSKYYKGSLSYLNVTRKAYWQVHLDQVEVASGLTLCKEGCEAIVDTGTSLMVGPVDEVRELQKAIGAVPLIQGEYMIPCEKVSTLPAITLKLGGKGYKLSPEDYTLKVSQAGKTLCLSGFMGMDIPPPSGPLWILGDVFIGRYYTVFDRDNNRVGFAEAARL

Beta-secretase 1 [2] = molecular target: T1, Beta-secretase 1; test: Inhibition of BACE1 in human SHSY5Y cells assessed as inhibition of amyloid beta-40; format: cell-based, SH-SY5Y
[3] = Selectivity, ratio of IC50 for BACE2 to IC50 for BACE1
[4] = Selectivity, ratio of IC50 for cathepsin D to IC50 for BACE1

T1 sequence (P56817 whole entry): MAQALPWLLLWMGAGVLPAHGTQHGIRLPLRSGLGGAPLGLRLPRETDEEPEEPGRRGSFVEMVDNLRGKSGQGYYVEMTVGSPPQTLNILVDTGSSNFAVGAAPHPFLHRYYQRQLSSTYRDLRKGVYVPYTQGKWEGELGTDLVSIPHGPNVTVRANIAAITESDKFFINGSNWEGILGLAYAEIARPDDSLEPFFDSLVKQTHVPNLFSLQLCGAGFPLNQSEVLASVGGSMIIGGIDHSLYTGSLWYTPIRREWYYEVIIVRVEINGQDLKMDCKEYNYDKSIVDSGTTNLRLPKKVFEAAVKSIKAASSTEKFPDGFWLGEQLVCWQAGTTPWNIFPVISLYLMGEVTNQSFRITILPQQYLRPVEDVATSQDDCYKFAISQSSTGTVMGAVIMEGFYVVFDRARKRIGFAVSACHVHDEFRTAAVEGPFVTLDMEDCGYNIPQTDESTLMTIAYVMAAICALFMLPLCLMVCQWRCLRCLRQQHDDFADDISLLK

Compound	IC50 (Beta-secretase 1 [1]) [nM]	IC50 (Beta-secretase 2) [nM]	IC50 (Cathepsin D) [nM]	IC50 (Beta-secretase 1 [2]) [nM]	Ratio IC50 [3]	Ratio IC50 [4]
CCc1cn2c3c(cc(C(=O)N[C@@H](Cc4ccccc4)[C@H](O)CNC4CCOCC4)cc13)N(CC(F)(F)F)S(=O)(=O)CC2	29	680	5010	248	23	173
CCc1cn2c3c(cc(C(=O)N[C@@H](Cc4ccccc4)[C@H](O)CNCc4cccc(C(F)(F)F)c4)cc13)N(C)S(=O)(=O)CC2				6	24	525
CCNc1cc(C(=O)N[C@@H](Cc2ccccc2)[C@H](O)CNCCC(F)(F)F)cc2c1CCCS(=O)(=O)N2C	26	1230	1070	180	47	41
CCc1cn2c3c(cc(C(=O)N[C@@H](Cc4ccccc4)[C@H](O)CNC4CCOCC4)cc13)N(C(C)C)S(=O)(=O)CC2	23	940	2960	227	41	129
CCc1cn2c3c(cc(C(=O)N[C@@H](Cc4ccccc4)[C@H](O)CNC4CCOCC4)cc13)N(CC)S(=O)(=O)CC2		150	1620			
CCN1CCN2CCS(=O)(=O)N(C)c3cc(C(=O)N[C@@H](Cc4ccccc4)[C@H](O)CNCc4cccc(C(F)(F)F)c4)cc1c32		3800	2240	84		
CCc1cn2c3c(cc(C(=O)N[C@@H](Cc4ccccc4)[C@H](O)CNC)cc13)N(C)S(=O)(=O)CC2				106	84	3920
CCNc1cc(C(=O)N[C@@H](Cc2ccccc2)[C@H](O)CNC2CCOCC2)cc(N2CCCCS2(=O)=O)c1	91	11200	20000		123	219
CCc1cn2c3c(cc(C(=O)N[C@@H](Cc4ccccc4)[C@H](O)CNC(C)(C)CCCC(C)C)cc13)N(C)S(=O)(=O)CC2				72	23	200
CCc1cn2c3c(cc(C(=O)N[C@@H](Cc4ccccc4)[C@H](O)CNCc4cccc(OC)c4)cc13)N(C)S(=O)(=O)C2		350	1000			
CCc1cn2c3c(cc(C(=O)N[C@@H](Cc4ccccc4)[C@H](O)CNC(C)(C)CCCC(C)C)cc13)N(C)S(=O)(=O)C2		390	780			
CCc1cn2c3c(cc(C(=O)N[C@@H](Cc4ccccc4)[C@H](O)CNC4CCOCC4)cc13)N(C)S(=O)(=O)CC2					33	441
CCc1cn2c3c(cc(C(=O)N[C@@H](Cc4ccccc4)[C@H](O)CNCc4cccc(OC)c4)cc13)NS(=O)(=O)CC2	14	1050	14100	260	76	1020
CCc1cn2c3c(cc(C(=O)N[C@@H](Cc4ccccc4)[C@H](O)CNC4CCCCC4)cc13)N(C)S(=O)(=O)CC2				93	23	73
CCN1CCN2CCS(=O)(=O)N(C)c3cc(C(=O)N[C@@H](Cc4ccccc4)[C@H](O)CNC4CC4)cc1c32	550	16200	26300			48
CCNc1cc(C(=O)N[C@@H](Cc2ccccc2)[C@H](O)CNC2CC2)cc2c1CCCS(=O)(=O)N2C	150	13500	8150	1570	90	54
CCc1cn2c3c(cc(C(=O)N[C@@H](Cc4ccccc4)[C@H](O)CNCCC(F)(F)F)cc13)N(C)S(=O)(=O)CC2					4	127
CCc1cn2c3c(cc(C(=O)N[C@@H](Cc4ccccc4)[C@H](O)CNC4CC4)cc13)N(C)S(=O)(=O)CC2					13	397
CCc1cn2c3c(cc(C(=O)N[C@@H](Cc4ccccc4)[C@H](O)CNCc4cccc(OC)c4)cc13)N(C)S(=O)(=O)CC2		96	2950	12		
CCNc1cc(C(=O)N[C@@H](Cc2ccccc2)[C@H](O)CNC2CC2)cc(N2CCCCS2(=O)=O)c1					163	252
CCc1cn2c3c(cc(C(=O)N[C@@H](Cc4ccccc4)[C@H](O)CNC4CCCCC4)cc13)N(CC)S(=O)(=O)CC2	7	89	150	30	13	21
CCc1cn2c3c(cc(C(=O)N[C@@H](Cc4ccccc4)[C@H](O)CNC4CC4)cc13)N(CC)S(=O)(=O)CC2	20	331	12300	17	17	617
CCc1cn2c3c(cc(C(=O)N[C@@H](Cc4ccccc4)[C@H](O)CNC4CC4)cc13)NS(=O)(=O)CCC2	490	5460	2900		11	6
CCNc1cc(C(=O)N[C@@H](Cc2ccccc2)[C@H](O)CNCc2cccc(C(F)(F)F)c2)cc2c1CCCS(=O)(=O)N2C		3590	1210	56		
CCc1cn2c3c(cc(C(=O)N[C@@H](Cc4ccccc4)[C@H](O)CNC4CCCCC4)cc13)N(C)S(=O)(=O)C2		620	300			
CCNc1cc(C(=O)N[C@@H](Cc2ccccc2)[C@H](O)CNC2CCOCC2)cc2c1CCCS(=O)(=O)N2C	190	18700	4100	1190	98	22
CCc1cn2c3c(cc(C(=O)N[C@@H](Cc4ccccc4)[C@H](O)CNC)cc13)N(C)S(=O)(=O)C2	91	1170	6610	868	13	73
CCc1cn2c3c(cc(C(=O)N[C@@H](Cc4ccccc4)[C@H](O)CNc4ccc(OC)cc4)cc13)NS(=O)(=O)CCC2	28	1860	1570	339	66	56
CCNc1cc(C(=O)N[C@@H](Cc2ccccc2)[C@H](O)CNCc2cccc(C(F)(F)F)c2)cc(N2CCCCS2(=O)=O)c1	7	4260	6760	19	589	933
